What was measured:
Z-138 cells [1] = test: Z-138 Proliferation Assay (Cell Titer Glo, 5 days); format: cell-based; details: Homo sapiens
Procedure, shortened: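 Exponentially growing Z-138 cells (10,000 cells/ml) in RPMI 1640 with 10% FBS are exposed to nine-point 3-fold dilutions (final top concentration 20 μM, 0.2% DMSO) for 5 days at 37° C. Viability is measured as ATP by CellTiter-Glo luminescence. The 50% inhibitory concentration comes from a 4-parameter fit.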

Z-138 cells [2] = test: Z-138 Methylation Assay (In Cell Western for symmetric di-methyl arginine and DNA content); format: cell-based; details: Homo sapiens
Procedure, shortened: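 Z-138 cells at 50,000 cells/mL exposed to compound 96 h at 37 °C, then attached to poly-D-lysine plates, fixed with paraformaldehyde and probed with anti-symmetric di-methyl arginine plus DRAQ5 DNA stain. 800/700 nm ratio normalized to DMSO and 3 μM reference controls; IC50 from triplicate wells.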

[3] = 120 h, Table A-2, 5 days, top concentration 20 μM
[4] = Table A-2, 96 hours, symmetric di-methyl arginine, read-out: ICW EC50

| SMILES | EC50 (Z-138 cells [1]; Table D-2) | EC50 (Z-138 cells [2]; Table D-2, read-out: ICW EC50) | EC50 (Z-138 cells [1]; [3]) | EC50 (Z-138 cells [2]; [4]) |
| --- | --- | --- | --- | --- |
| Cn1ccc(C(=O)Nc2cccc(OCC(O)CN3CCc4ccccc4C3)c2)n1 (centres unmarked) [Compound D162] | > 20 µM | 1 to 10 µM |  |  |
| OC(COc1cccc(-c2ccccc2Oc2ccccc2)c1)CN1CCc2ccccc2C1 (centres unmarked) [Compound D167] | > 20 µM | 1 to 10 µM |  |  |
| Cn1cnc2ccc(-c3ccnc(NCC(O)CN4CCc5ccccc5C4)n3)cc21 (centres unmarked) [Compound D119] | 1 to 10 µM | 0.101 to 1 µM |  |  |
| Cc1ccc(F)c(-c2cccc(OCC(O)CN3CCc4ccccc4C3)c2)c1 (centres unmarked) [Compound D138] | > 20 µM | 1 to 10 µM |  |  |
| Cn1ncc2cc(-c3cccc(OCC(O)CN4CCc5ccccc5C4)c3)ccc21 (centres unmarked) [Compound D108] | 10 to 40 µM | 1 to 10 µM |  |  |
| OC(COc1cccc(-c2csc3ccccc23)c1)CN1CCc2ccccc2C1 (centres unmarked) [Compound D170] | > 20 µM | 1 to 10 µM |  |  |
| OC(COc1cccc(-c2ccc3ncoc3c2)c1)CN1CCc2ccccc2C1 (centres unmarked) [Compound D188] | 10 to 40 µM | 1 to 10 µM |  |  |
| C[C@H](Oc1cccc2cccnc12)C(=O)NC[C@H](O)CN1CCc2ccccc2C1 [Compound A76] |  |  | 1 to 10 µM | 0.101 to 1 µM |
| CS(=O)(=O)c1cccc(-c2cccc(OCC(O)CN3CCc4ccccc4C3)c2)c1 (centres unmarked) [Compound D130] | > 20 µM | 1 to 10 µM |  |  |
| CN1C(=O)COc2cccc(OCC(=O)NCC(O)CN3CCc4ccccc4C3)c21 (centres unmarked) [Compound A80] |  |  | 10 to 50 µM | 0.101 to 1 µM |
| COc1ccc(-c2cccc(OCC(O)CN3CCc4ccccc4C3)c2)cc1Cl (centres unmarked) [Compound D168] | > 20 µM | 10 to 40 µM |  |  |
| OC(COc1cccc(-c2ccc(C(F)(F)F)cc2C(F)(F)F)c1)CN1CCc2ccccc2C1 (centres unmarked) [Compound D124] | > 20 µM | 10 to 40 µM |  |  |
| CN(C)c1ccc(-c2cccc(OCC(O)CN3CCc4ccccc4C3)c2)cc1 (centres unmarked) [Compound D151] | > 20 µM | 1 to 10 µM |  |  |
| Cn1cnc2ccc(-c3ccnc(NCC(O)CN4CCc5ccccc5C4)c3)cc21 (centres unmarked) [Compound D118] | 1 to 10 µM | 0.101 to 1 µM |  |  |
| Cn1ccc2ccc(-c3cccc(OCC(O)CN4CCc5ccccc5C4)c3)cc21 (centres unmarked) [Compound D147] | 10 to 40 µM | 1 to 10 µM |  |  |
| CN1CCN(c2ccccc2OCC(=O)NC[C@H](O)CN2CCc3ccccc3C2)CC1 [Compound A84] |  |  | 1 to 10 µM | 0.101 to 1 µM |
| OC(COc1cccc(-c2ccc3ncn(Cc4ccccc4)c3c2)c1)CN1CCc2ccccc2C1 (centres unmarked) [Compound D105] | 10 to 40 µM | 1 to 10 µM |  |  |
| OC(COc1cccc(-c2ccc3[nH]ncc3c2)c1)CN1CCc2ccccc2C1 (centres unmarked) [Compound D107] | > 20 µM | 1 to 10 µM |  |  |
| CN(CC(O)CN1CCc2ccccc2C1)c1cccc(CNC2CCOCC2)c1 (centres unmarked) [Compound D116] | > 20 µM | 1 to 10 µM |  |  |
| Cn1ncc2ccc(-c3cc(NCC(O)CN4CCc5ccccc5C4)ncn3)cc21 (centres unmarked) [Compound D205] | > 20 µM | 0.101 to 1 µM |  |  |
| O=C(COc1c(CN2CCOCC2)ccc2cccnc12)NC[C@H](O)CN1CCc2ccccc2C1 [Compound A94] |  |  | 10 to 50 µM | 0.101 to 1 µM |
| Cn1cnc2ccc(-c3cccc(OC[C@H](O)CN4CCc5ccccc5C4)c3)cc21 [Compound D174] | 1 to 10 µM | 0.101 to 1 µM |  |  |
| OC(COc1cccc(-c2ccc3cnoc3c2)c1)CN1CCc2ccccc2C1 (centres unmarked) [Compound D166] | > 20 µM | 10 to 40 µM |  |  |
| Cn1cnc(C(=O)Nc2cccc(OCC(O)CN3CCc4ccccc4C3)c2)c1 (centres unmarked) [Compound D183] | > 20 µM | 1 to 10 µM |  |  |
| Cn1cnc2ccc(-c3cccc(NCC(O)CN4CCc5ccccc5C4)n3)cc21 (centres unmarked) [Compound D117] | > 20 µM | 1 to 10 µM |  |  |
| COC(=O)c1cncc(-c2cccc(OCC(O)CN3CCc4ccccc4C3)c2)c1 (centres unmarked) [Compound D180] | > 20 µM | > 20 µM |  |  |
| OC(COc1cccc(-c2ccc(C(F)(F)F)cc2Cl)c1)CN1CCc2ccccc2C1 (centres unmarked) [Compound D127] | > 20 µM | 10 to 40 µM |  |  |
| Cn1cnc2ccc(-c3cc(NCC(O)CN4CCc5ccccc5C4)ncn3)cc21 (centres unmarked) [Compound D207] | 1 to 10 µM | 0.101 to 1 µM |  |  |

| SMILES | EC50 (Z-138 cells [1]; Table D-2) | EC50 (Z-138 cells [2]; Table D-2, read-out: ICW EC50) | EC50 (Z-138 cells [1]; [3]) | EC50 (Z-138 cells [2]; [4]) |
| --- | --- | --- | --- | --- |
| O=C1COc2ccc(-c3cccc(OCC(O)CN4CCc5ccccc5C4)c3)cc2N1 (centres unmarked) [Compound D156] | 10 to 40 µM | 1 to 10 µM |  |  |
| O=C(COc1cccc2c1CCNC2)NCC(O)CN1CCc2ccccc2C1 (centres unmarked) [Compound A91] |  |  | 1 to 10 µM | 0.101 to 1 µM |
| O=C(c1cccc(-c2cccc(OCC(O)CN3CCc4ccccc4C3)c2)c1)N1CCOCC1 (centres unmarked) [Compound D126] | > 20 µM | 1 to 10 µM |  |  |
| CS(=O)(=O)c1ccccc1-c1cccc(OCC(O)CN2CCc3ccccc3C2)c1 (centres unmarked) [Compound D131] | > 20 µM | 1 to 10 µM |  |  |
| O=C(COc1cccc2nccnc12)NCC(O)CN1CCc2ccccc2C1 (centres unmarked) [Compound A92] |  |  | 1 to 10 µM | < 0.1 µM |
| Cn1nccc1C(=O)Nc1cccc(OCC(O)CN2CCc3ccccc3C2)c1 (centres unmarked) [Compound D160] | > 20 µM | 1 to 10 µM |  |  |
| CN1CCN(c2ccc(-c3cccc(OCC(O)CN4CCc5ccccc5C4)c3)cn2)CC1 (centres unmarked) [Compound D149] | 1 to 10 µM | 1 to 10 µM |  |  |
| CC(=O)c1ccc(-c2cccc(OCC(O)CN3CCc4ccccc4C3)c2)cc1 (centres unmarked) [Compound D137] | > 20 µM | 1 to 10 µM |  |  |
| CS(=O)(=O)Nc1ccc(-c2cccc(OCC(O)CN3CCc4ccccc4C3)c2)cc1 (centres unmarked) [Compound D129] | 10 to 40 µM | 1 to 10 µM |  |  |
| Cn1ccc2ccc(-c3cccc(OCC(O)CN4CCc5ccccc5C4)c3)nc21 (centres unmarked) [Compound D176] | > 20 µM | 0.101 to 1 µM |  |  |
| O=C(COc1cccc(NC2CCOCC2)c1)NCC(O)CN1CCc2ccccc2C1 (centres unmarked) [Compound A93] |  |  | 1 to 10 µM | < 0.1 µM |
| Cn1ncc2ccc(-c3cc(COCC(O)CN4CCc5ccccc5C4)on3)cc21 (centres unmarked) [Compound D136] | > 20 µM | 1 to 10 µM |  |  |
| CC(=O)Nc1cccc(-c2cccc(OCC(O)CN3CCc4ccccc4C3)c2)c1 (centres unmarked) [Compound D169] | > 20 µM | 0.101 to 1 µM |  |  |
| COC(=O)c1cccc(-c2cccc(OCC(O)CN3CCc4ccccc4C3)c2)c1 (centres unmarked) [Compound D135] | > 20 µM | > 20 µM |  |  |
| O=C(Nc1cccc(OCC(O)CN2CCc3ccccc3C2)c1)c1cncnc1 (centres unmarked) [Compound D161] | > 20 µM | 1 to 10 µM |  |  |
| OC(COc1cccc(-c2cc(OC(F)(F)F)ccc2Cl)c1)CN1CCc2ccccc2C1 (centres unmarked) [Compound D200] | > 20 µM | 10 to 40 µM |  |  |
| CNC(=O)c1cncc(-c2cccc(OCC(O)CN3CCc4ccccc4C3)c2)c1 (centres unmarked) [Compound D182] | > 20 µM | 1 to 10 µM |  |  |
| CC(=O)N1CCN(c2ccccc2OCC(=O)NCC(O)CN2CCc3ccccc3C2)CC1 (centres unmarked) [Compound A90] |  |  | 10 to 50 µM | 0.101 to 1 µM |
| OC(COc1cccc(-c2ccc3ncn(C4CCOCC4)c3c2)c1)CN1CCc2ccccc2C1 (centres unmarked) [Compound D103] | 1 to 10 µM | 0.101 to 1 µM |  |  |
| Cn1cnc2ccc(-c3cccc(NCC(O)CN4CCc5ccccc5C4)c3)cc21 (centres unmarked) [Compound D102] | 1 to 10 µM | 0.101 to 1 µM |  |  |
| O=c1[nH]c2ccc(-c3cccc(OCC(O)CN4CCc5ccccc5C4)c3)cc2[nH]1 (centres unmarked) [Compound D109] | 10 to 40 µM | 0.101 to 1 µM |  |  |
| OC(COc1cccc(-c2ccccc2C(F)(F)F)c1)CN1CCc2ccccc2C1 (centres unmarked) [Compound D132] | > 20 µM | 1 to 10 µM |  |  |
| Cn1ncc2c(OCC(=O)NCC(O)CN3CCc4ccccc4C3)cccc21 (centres unmarked) [Compound A82] |  |  | 1 to 10 µM | < 0.1 µM |
| Cc1cn(C)c2cc(-c3cccc(OCC(O)CN4CCc5ccccc5C4)c3)ccc12 (centres unmarked) [Compound D187] | > 20 µM | 1 to 10 µM |  |  |
| CC(C)(C)OCc1cccc(-c2cccc(OCC(O)CN3CCc4ccccc4C3)c2)c1 (centres unmarked) [Compound D150] | > 20 µM | 1 to 10 µM |  |  |
| CNC(=O)c1cccc(-c2cccc(OCC(O)CN3CCc4ccccc4C3)c2)c1 (centres unmarked) [Compound D186] | > 20 µM | 1 to 10 µM |  |  |
| CN1CCOc2cccc(OCC(=O)NCC(O)CN3CCc4ccccc4C3)c21 (centres unmarked) [Compound A81] |  |  | 0.101 to 1 µM | < 0.1 µM |

Reference: patent publication US20150344457A1, “METHODS OF INHIBITING PRMT5” (EPIZYME, INC., priority 2012, published 2015)
